Data taken from ChEMBL document CHEMBL1201862, “PubChem BioAssay data set” (2004).
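Five compound concentrations were applied to cells in 96-well plates for 48 hours; endpoints were derived by simple linear interpolation of the resulting dose-response curve. GI50: concentration for 50% inhibition of growth.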 Activity calls are given as the source filed them. No stated cut-off is given here; in the data, active = GI50 up to about 1.1 µM and inactive = higher.

Assays:
Test in all cases: growth of human tumour cells (NCI), 48 h
786-0 = system: 786-0
A498 = system: A498
CCRF-CEM = system: CCRF-CEM
COLO 205 = system: COLO 205
EKVX = system: EKVX
HL-60 = system: HL-60
MDA-MB-231 = system: MDA-MB-231
MDA-MB-435 = system: MDA-MB-435
MOLT-4 = system: MOLT-4
NCI-H226 = system: NCI-H226
NCI-H23 = system: NCI-H23
OVCAR-4 = system: OVCAR-4
SF-268 = system: SF-268
SF-295 = system: SF-295
SK-MEL-2 = system: SK-MEL-2
SK-MEL-5 = system: SK-MEL-5
UACC-62 = system: UACC-62
UO-31 = system: UO-31
A549 = system: A549
MCF7 = system: MCF7

Measured: GI50

CO[C@@]12C[C@@H](C)C3=CCC(C)=C3CC1=C(C)C(=O)O2
inactive: 786-0 > 100 µM | A498 > 100 µM | CCRF-CEM 50.8 µM | COLO 205 > 100 µM | EKVX > 100 µM | HL-60 50.8 µM | MDA-MB-231 > 100 µM | MDA-MB-435 > 100 µM | MOLT-4 45.7 µM | NCI-H226 > 100 µM | NCI-H23 > 100 µM | OVCAR-4 > 100 µM | SF-268 > 100 µM | SF-295 > 100 µM | SK-MEL-2 > 100 µM | SK-MEL-5 > 100 µM | UACC-62 > 100 µM | UO-31 > 100 µM

CC(=O)C1C(=O)C(=O)N(c2ccc(Cl)c(Cl)c2)C1=O (stereo unspecified)
inactive: 786-0 > 100 µM | A549 > 100 µM | COLO 205 > 100 µM | EKVX > 100 µM | HL-60 > 100 µM | MCF7 > 100 µM | MDA-MB-231 > 100 µM | MDA-MB-435 > 100 µM | MOLT-4 > 100 µM | NCI-H226 > 100 µM | NCI-H23 > 100 µM | SF-295 > 100 µM | SK-MEL-2 > 100 µM | SK-MEL-5 > 100 µM | UACC-62 > 100 µM | UO-31 99.3 µM

CC(=O)On1c(-c2ccccc2-c2nc3ccccc3n2OC(C)=O)nc2ccccc21
inactive: 786-0 46.6 µM | A549 41.3 µM | CCRF-CEM 41.3 µM | COLO 205 16.7 µM | EKVX > 10 µM | HL-60 14.7 µM | MCF7 26.7 µM | MDA-MB-231 42.8 µM | MDA-MB-435 16.2 µM | MOLT-4 11.3 µM | NCI-H226 25.9 µM | NCI-H23 7.48 µM | SF-268 23 µM | SF-295 44.7 µM | SK-MEL-2 22.4 µM | SK-MEL-5 3.4 µM | UACC-62 21 µM | UO-31 74.6 µM

CCCCCC(=O)OCC1(CO)C/C(=C\CC(C(C)C)C(C)C)C(=O)O1 (stereo unspecified)
inactive: 786-0 31.9 µM | A498 86.1 µM | A549 76.9 µM | CCRF-CEM 26.4 µM | COLO 205 17.9 µM | EKVX > 100 µM | MCF7 78.7 µM | MDA-MB-231 > 100 µM | MDA-MB-435 > 100 µM | MOLT-4 17.9 µM | NCI-H226 65.5 µM | NCI-H23 > 100 µM | OVCAR-4 > 100 µM | SF-268 > 100 µM | SF-295 25.9 µM | SK-MEL-2 > 100 µM | SK-MEL-5 38.4 µM | UACC-62 > 100 µM | UO-31 > 100 µM

CCN1CCCCCCCCCC(=N/O)/C(=N\O)C1
inactive: 786-0 > 100 µM | A498 > 100 µM | A549 > 100 µM | CCRF-CEM > 100 µM | EKVX > 100 µM | HL-60 > 100 µM | MCF7 > 100 µM | MDA-MB-231 > 100 µM | MDA-MB-435 > 100 µM | MOLT-4 > 100 µM | NCI-H226 > 100 µM | NCI-H23 > 100 µM | SF-268 > 100 µM | SF-295 > 100 µM | SK-MEL-5 > 100 µM | UO-31 > 100 µM

C(=N\c1ccc(-c2cc(-c3ccccc3)nc3ccc4ccccc4c23)cc1)/c1ccccc1
inactive: 786-0 19.5 µM | A498 26.7 µM | A549 13.6 µM | CCRF-CEM 16 µM | COLO 205 13.6 µM | EKVX 18.1 µM | HL-60 9.48 µM | MCF7 9.25 µM | MDA-MB-231 11.2 µM | MDA-MB-435 21.2 µM | MOLT-4 18.6 µM | NCI-H226 22.3 µM | NCI-H23 27.6 µM | OVCAR-4 2.39 µM | SF-268 7.48 µM | SF-295 10.9 µM | SK-MEL-5 17.4 µM | UACC-62 20.8 µM | UO-31 15.9 µM

C[Si](C)(OCCS(=O)(=O)O)C1S(=O)(=O)OCCOS1(=O)=O
inactive: 786-0 36.1 µM | A498 > 100 µM | CCRF-CEM 58.1 µM | COLO 205 > 100 µM | EKVX > 100 µM | HL-60 27.5 µM | MCF7 36.6 µM | MDA-MB-231 > 100 µM | MDA-MB-435 43.5 µM | MOLT-4 30.3 µM | NCI-H226 64.9 µM | NCI-H23 53.8 µM | OVCAR-4 > 100 µM | SF-268 24 µM | SF-295 4.86 µM | SK-MEL-5 49.5 µM | UACC-62 13.7 µM | UO-31 58.6 µM

CC1(C)Oc2ccc3c(=O)cc(-c4ccc(F)cc4)oc3c2C1C(=O)O (stereo unspecified)
inactive: 786-0 > 100 µM | A498 > 100 µM | A549 > 100 µM | CCRF-CEM > 100 µM | COLO 205 > 100 µM | EKVX > 100 µM | MCF7 > 100 µM | MDA-MB-231 > 100 µM | MDA-MB-435 > 100 µM | MOLT-4 > 100 µM | NCI-H226 > 100 µM | NCI-H23 > 100 µM | SF-268 > 100 µM | SF-295 > 100 µM | SK-MEL-2 > 100 µM | SK-MEL-5 > 100 µM | UACC-62 > 100 µM

COc1ccc(C(=O)Oc2c(C#N)sc3c2c(=O)n(-c2ccccc2)c(=S)n3-c2ccccc2)cc1
inactive: 786-0 44.1 µM | A498 16.4 µM | A549 30.1 µM | CCRF-CEM 15.1 µM | COLO 205 25.8 µM | EKVX 12.9 µM | HL-60 22.2 µM | MCF7 15 µM | MDA-MB-231 31.3 µM | MDA-MB-435 22.7 µM | MOLT-4 21 µM | NCI-H226 24.2 µM | NCI-H23 20.3 µM | OVCAR-4 28.1 µM | SF-268 34.2 µM | SF-295 35.7 µM | SK-MEL-5 21.6 µM | UACC-62 5.66 µM | UO-31 2.12 µM

CC[C@@]1(N(C)C)C(=O)OCc2c1cc1n(c2=O)Cc2cc3ccccc3nc2-1
inactive: 786-0 25.8 µM | A498 42.7 µM | A549 61 µM | CCRF-CEM 18.5 µM | COLO 205 > 100 µM | EKVX 45.9 µM | MCF7 32.1 µM | MDA-MB-231 96.6 µM | MDA-MB-435 > 100 µM | NCI-H226 22.4 µM | NCI-H23 16.6 µM | OVCAR-4 47.1 µM | SF-268 17.3 µM | SF-295 16.1 µM | SK-MEL-2 26.4 µM | SK-MEL-5 69.3 µM | UACC-62 22.1 µM | UO-31 25.4 µM

Cc1ccc(SCC(CF)OC(C)n2cnc3c(O)nc(N)nc32)cc1 (stereo unspecified)
inactive: 786-0 > 100 µM | A549 > 100 µM | CCRF-CEM > 100 µM | COLO 205 > 100 µM | HL-60 41.1 µM | MCF7 34.9 µM | MDA-MB-231 > 100 µM | MDA-MB-435 63.8 µM | MOLT-4 50.5 µM | NCI-H226 > 100 µM | NCI-H23 75.5 µM | OVCAR-4 > 100 µM | SF-268 > 100 µM | SF-295 > 100 µM | SK-MEL-2 > 100 µM | SK-MEL-5 18.1 µM | UACC-62 > 100 µM | UO-31 > 100 µM
